The nature of this data set: pH dependent solubility of Compound A. It is filed as physicochemical. The text has this: The pH dependent solubility and potential rapid release in the stomach of Compound A causes difficulties in the formulation or oral dosage forms. It is desirable that release is controlled to take place over a period of hours. Such a formulation would require dosing only once a day, and this is likely to improve patient compliance.

In brackets after ≈: the same amount, converted by molar mass.

By solubility is commonly meant how much of the substance goes into solution per volume. Read a high solubility as a readily soluble substance. On to `CN(CCOc1ccc(CC2SC(=O)NC2=O)cc1)c1ccccn1` (centres unmarked) [Compound A, 5-[4-[2-(N-methyl-N-(2 pyridyl)amino)ethoxy]benzyl]thiazolidine-2,4-dione], for which the solubility (aqueous buffer, pH 7, near neutral pH of the small intestine) was approximately 80 µg/mL (≈ 0.224 mM) and the solubility (simulated gastric fluid, pH 2, acidic regions associated with the stomach) is approximately 5000 µg/mL (≈ 14 mM).
